# Inconclusive results and toxic doses are left out.
# System: CD2F1 mice, L1210 leukemia ip, survival T/C
# Assay: NCI In Vivo Anticancer Drug Screen. Data for tumor model L1210 Leukemia (intraperitoneal) in CD2F1 (CDF1) mice
# Settings: higher = longer survival
# In short: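 Mice carrying a transplanted tumor received test compound or vehicle alone. The value is the measurement in the treated group divided by that in the vehicle-treated control group.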
structure (smiles),measurement,setting,value
N.N.N.N.O=C(O)C1OCCOCCOC(C(=O)O)C(C(=O)O)OCCOCCOC1C(=O)O.[Pt+2].[Pt+2] (centres undefined),T/C,"endpoint: median survival time, dose: 0.39 mg/kg/injection, schedule: Q04DX003 (ip), vehicle: saline with Tween-80",100 % of control
same,T/C,"endpoint: median survival time, dose: 0.62 mg/kg/injection, schedule: Q04DX003 (ip), vehicle: saline",98 % of control
same,T/C,"endpoint: median survival time, dose: 0.78 mg/kg/injection, schedule: Q04DX003 (ip), vehicle: saline with Tween-80",107 % of control
same,T/C,"endpoint: median survival time, dose: 0.78 mg/kg/injection, schedule: Q04DX003 (ip), vehicle: saline",100 % of control
same,T/C,"endpoint: median survival time, dose: 1.25 mg/kg/injection, schedule: Q04DX003 (ip), vehicle: saline",98 % of control
same,T/C,"endpoint: median survival time, dose: 1.56 mg/kg/injection, schedule: Q04DX003 (ip), vehicle: saline with Tween-80",107 % of control
same,T/C,"endpoint: median survival time, dose: 1.56 mg/kg/injection, schedule: Q04DX003 (ip), vehicle: saline",101 % of control
same,T/C,"endpoint: median survival time, dose: 2.5 mg/kg/injection, schedule: Q04DX003 (ip), vehicle: saline",98 % of control
same,T/C,"endpoint: median survival time, dose: 3.12 mg/kg/injection, schedule: Q04DX003 (ip), vehicle: saline with Tween-80",110 % of control
same,T/C,"endpoint: median survival time, dose: 3.12 mg/kg/injection, schedule: Q04DX003 (ip), vehicle: saline",107 % of control
same,T/C,"endpoint: median survival time, dose: 5.0 mg/kg/injection, schedule: Q04DX003 (ip), vehicle: saline",102 % of control
same,T/C,"endpoint: median survival time, dose: 6.25 mg/kg/injection, schedule: Q04DX003 (ip), vehicle: saline with Tween-80",118 % of control
same,T/C,"endpoint: median survival time, dose: 6.25 mg/kg/injection, schedule: Q04DX003 (ip), vehicle: saline",103 % of control
same,T/C,"endpoint: median survival time, dose: 10.0 mg/kg/injection, schedule: Q04DX003 (ip), vehicle: saline",111 % of control
same,T/C,"endpoint: median survival time, dose: 12.5 mg/kg/injection, schedule: Q04DX003 (ip), vehicle: saline",107 % of control
same,T/C,"endpoint: median survival time, dose: 20.0 mg/kg/injection, schedule: Q04DX003 (ip), vehicle: saline",111 % of control
same,T/C,"endpoint: median survival time, dose: 25.0 mg/kg/injection, schedule: Q04DX003 (ip), vehicle: saline with Tween-80",167 % of control
same,T/C,"endpoint: median survival time, dose: 25.0 mg/kg/injection, schedule: Q04DX003 (ip), vehicle: saline",123 % of control
CCOC(=O)CCN(C(=O)OCc1ccccc1)N(C)C(=O)OCc1ccccc1,T/C,"endpoint: mean survival time, dose: 25.0 mg/kg/injection, schedule: Q04DX003 (ip), vehicle: Klucel (hydroxypropylcellulose) (HPC)",91 % of control
same,T/C,"endpoint: mean survival time, dose: 50.0 mg/kg/injection, schedule: Q04DX003 (ip), vehicle: Klucel (hydroxypropylcellulose) (HPC)",94 % of control
same,T/C,"endpoint: mean survival time, dose: 100.0 mg/kg/injection, schedule: Q04DX003 (ip), vehicle: Klucel (hydroxypropylcellulose) (HPC)",89 % of control
same,T/C,"endpoint: mean survival time, dose: 200.0 mg/kg/injection, schedule: Q04DX003 (ip), vehicle: Klucel (hydroxypropylcellulose) (HPC)",89 % of control
same,T/C,"endpoint: mean survival time, dose: 400.0 mg/kg/injection, schedule: Q04DX003 (ip), vehicle: Klucel (hydroxypropylcellulose) (HPC)",100 % of control
COC1OC2COc3ccccc3OC2C(NC(=O)Oc2ccccc2)C1O (centres undefined),T/C,"endpoint: mean survival time, dose: 100.0 mg/kg/injection, schedule: Q01DX001 (ip), vehicle: saline with Tween-80",94 % of control
same,T/C,"endpoint: mean survival time, dose: 200.0 mg/kg/injection, schedule: Q01DX001 (ip), vehicle: saline with Tween-80",94 % of control
same,T/C,"endpoint: mean survival time, dose: 400.0 mg/kg/injection, schedule: Q01DX001 (ip), vehicle: saline with Tween-80",91 % of control
O=C(O)c1sc(C(=O)O)c(-c2ccccc2)c1-c1ccccc1,T/C,"endpoint: mean survival time, dose: 100.0 mg/kg/injection, schedule: Q01DX009 (ip), vehicle: saline sonified",92 % of control
same,T/C,"endpoint: mean survival time, dose: 200.0 mg/kg/injection, schedule: Q01DX009 (ip), vehicle: saline sonified",90 % of control
same,T/C,"endpoint: mean survival time, dose: 400.0 mg/kg/injection, schedule: Q01DX009 (ip), vehicle: saline sonified",103 % of control
CCCOCCN=C(N)C(N)=NCCOCCC,T/C,"endpoint: mean survival time, dose: 12.5 mg/kg/injection, schedule: Q04DX002 (ip), vehicle: saline with Tween-80",97 % of control
same,T/C,"endpoint: mean survival time, dose: 25.0 mg/kg/injection, schedule: Q04DX002 (ip), vehicle: saline with Tween-80",89 % of control
same,T/C,"endpoint: mean survival time, dose: 50.0 mg/kg/injection, schedule: Q04DX002 (ip), vehicle: saline with Tween-80",97 % of control
CC(C)(CCC#N)/C(=N\Nc1ccc([N+](=O)[O-])cc1[N+](=O)[O-])c1ccccc1,T/C,"endpoint: mean survival time, dose: 75.0 mg/kg/injection, schedule: Q04DX002 (ip), vehicle: saline with Tween-80",90 % of control
same,T/C,"endpoint: mean survival time, dose: 150.0 mg/kg/injection, schedule: Q04DX002 (ip), vehicle: saline with Tween-80",102 % of control
same,T/C,"endpoint: mean survival time, dose: 300.0 mg/kg/injection, schedule: Q04DX002 (ip), vehicle: saline with Tween-80",94 % of control
FC(F)=C(F)I,T/C,"endpoint: mean survival time, dose: 50.0 mg/kg/injection, schedule: Q01DX009 (ip), vehicle: other",95 % of control
same,T/C,"endpoint: mean survival time, dose: 100.0 mg/kg/injection, schedule: Q01DX009 (ip), vehicle: other",103 % of control
same,T/C,"endpoint: mean survival time, dose: 200.0 mg/kg/injection, schedule: Q01DX009 (ip), vehicle: other",103 % of control
COc1cc2c(cc1OC)CCN=C2,T/C,"endpoint: mean survival time, dose: 50.0 mg/kg/injection, schedule: Q01DX009 (ip), vehicle: saline",106 % of control
same,T/C,"endpoint: mean survival time, dose: 100.0 mg/kg/injection, schedule: Q01DX009 (ip), vehicle: saline",92 % of control
CC(CCc1ccccc1)NC(C)C(O)c1ccc(O)cc1 (centres undefined),T/C,"endpoint: mean survival time, dose: 25.0 mg/kg/injection, schedule: Q01DX009 (ip), vehicle: saline with Tween-80",102 % of control
same,T/C,"endpoint: mean survival time, dose: 50.0 mg/kg/injection, schedule: Q01DX009 (ip), vehicle: saline with Tween-80",96 % of control
same,T/C,"endpoint: mean survival time, dose: 100.0 mg/kg/injection, schedule: Q01DX009 (ip), vehicle: saline with Tween-80",102 % of control
same,T/C,"endpoint: mean survival time, dose: 100.0 mg/kg/injection, schedule: Q04DX003 (ip), vehicle: saline with Tween-80",102 % of control
